Measured values: PubChem BioAssay (NCI)
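Interpolation was linear, between the two tested concentrations surrounding the appropriate level; five concentrations were tested over 48 hours in 96-well plates. At the TGI there is no net growth.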

Key:
Test in all cases: DTP human tumour cell line panel, 48 h
SN12C renal = tested on: SN12C renal
MALME-3M melanoma = tested on: MALME-3M melanoma
SR leukemia = tested on: SR leukemia
COLO 205 colon = tested on: COLO 205 colon
KM20L2 colon = tested on: KM20L2 colon
IGROV1 ovarian = tested on: IGROV1 ovarian
MOLT-4 leukemia = tested on: MOLT-4 leukemia
DMS 273 small cell lung = tested on: DMS 273 small cell lung
SK-MEL-28 melanoma = tested on: SK-MEL-28 melanoma
TK-10 renal = tested on: TK-10 renal
NCI-H522 lung = tested on: NCI-H522 lung
HL-60(TB) leukemia = tested on: HL-60(TB) leukemia
K-562 leukemia = tested on: K-562 leukemia
RPMI-8226 leukemia = tested on: RPMI-8226 leukemia
NCI-H23 lung = tested on: NCI-H23 lung
HOP-18 NSCLC = tested on: HOP-18 NSCLC
SK-OV-3 ovarian = tested on: SK-OV-3 ovarian
OVCAR-8 ovarian = tested on: OVCAR-8 ovarian
SF-539 CNS = tested on: SF-539 CNS
CCRF-CEM leukemia = tested on: CCRF-CEM leukemia
KM12 colon = tested on: KM12 colon
RXF 393 renal = tested on: RXF 393 renal
NCI-H460 lung = tested on: NCI-H460 lung
SF-295 CNS = tested on: SF-295 CNS
HCC-2998 colon = tested on: HCC-2998 colon
SNB-78 CNS = tested on: SNB-78 CNS
M19-MEL melanoma = tested on: M19-MEL melanoma
SW-620 colon = tested on: SW-620 colon
LXFL 529 NSCLC = tested on: LXFL 529 NSCLC
SK-MEL-2 melanoma = tested on: SK-MEL-2 melanoma
LOX IMVI melanoma = tested on: LOX IMVI melanoma
ACHN renal = tested on: ACHN renal
HOP-92 NSCLC = tested on: HOP-92 NSCLC
UACC-62 melanoma = tested on: UACC-62 melanoma
OVCAR-5 ovarian = tested on: OVCAR-5 ovarian
SF-268 CNS = tested on: SF-268 CNS
UO-31 renal = tested on: UO-31 renal
U251 CNS = tested on: U251 CNS
DLD-1 colon = tested on: DLD-1 colon
A549 NSCLC = tested on: A549 NSCLC
EKVX NSCLC = tested on: EKVX NSCLC
HCT-116 colon = tested on: HCT-116 colon
SNB-19 CNS = tested on: SNB-19 CNS
UACC-257 melanoma = tested on: UACC-257 melanoma
SK-MEL-5 melanoma = tested on: SK-MEL-5 melanoma
NCI-H226 lung = tested on: NCI-H226 lung
HT29 colon = tested on: HT29 colon
HCT-15 colon = tested on: HCT-15 colon
786-0 renal = tested on: 786-0 renal
CAKI-1 renal = tested on: CAKI-1 renal
OVCAR-3 ovarian = tested on: OVCAR-3 ovarian
M14 melanoma = tested on: M14 melanoma
A498 renal = tested on: A498 renal
XF 498 CNS = tested on: XF 498 CNS
DMS 114 small cell lung = tested on: DMS 114 small cell lung
HOP-62 NSCLC = tested on: HOP-62 NSCLC
OVCAR-4 ovarian = tested on: OVCAR-4 ovarian

Measured: TGI

CO[C@H]1ON=C(c2c(C)cc(C)cc2C)[C@@H]1C1(c2ccccc2)ON=C(c2c(C)cc(C)cc2C)O1 (stereo partly drawn)
not listed: SK-MEL-5 melanoma | NCI-H226 lung | HT29 colon | HCT-15 colon | 786-0 renal | CAKI-1 renal | OVCAR-3 ovarian | M14 melanoma | A498 renal | XF 498 CNS | DMS 114 small cell lung | HOP-62 NSCLC | OVCAR-4 ovarian
> 100 µM: all other assays above

C[N+](C)(C)CC(=O)N/N=C(\CCC(=O)NCCc1ccccc1)CC(=O)c1ccccc1
not listed: SR leukemia | SK-MEL-28 melanoma | RXF 393 renal
> 100 µM: all other assays above
